# Source: patent US12404283B2, “c-MYC mRNA translation modulators and uses thereof in the treatment of cancer” (Anima Biotech Inc., priority 2022, dated 2025)
# Test system: c-Myc
# Experiment: c-Myc immunofluorescence assay
# Format: cell-based, human
# Details: A549 cells, 24 hours treatment, anti-c-Myc immunofluorescence
# Summary of the method: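 High-content imaging (20×) of PFA-fixed A549 cells immunostained for c-Myc with DAPI nuclei, after 24 h compound treatment at increasing concentrations. Per-cell c-Myc signal in identified cell regions was plotted against dose and fitted by logistic regression to give EC50.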
row,Compound,Myc Efficacy (−LogEC50)
1,"O=C(NCCCN1CCCCC1)c1ccc2c(c1)sc1nc(-c3ccc(CNC4CC4)cc3F)nn12 [compound 396, 2-(4-((cyclopropylamino)methyl)-2-fluorophenyl)-N-(3-(piperidin-1-yl)propyl)benzo[4,5]thiazolo [3,2-b][1,2,4]triazole-6-carboxamide]",++ (++ ≥5 and <6)
2,"CCN(CC)CCCNC(=O)c1ccc2c(c1)sc1nc(-c3ccc(C4(N)CC4)cc3)nn12 [compound 397, 2-(4-(1-aminocyclopropyl)phenyl)-N-(3-(diethylamino)propyl)benzo [4,5]thiazolo[3,2-b][1,2,4]triazole-6-carboxamide]",++ (++ ≥5 and <6)
3,"NC1(c2ccc(-c3nc4sc5cc(C(=O)NCCCN6CCCCC6)ccc5n4n3)cc2)CC1 [compound 398, 2-(4-(1-aminocyclopropyl)phenyl)-N-(3-(piperidin-1-yl)propyl)benzo[4,5]thiazolo [3,2-b][1,2,4]triazole-6-carboxamide]",++ (++ ≥5 and <6)
4,"CNC(=O)c1ccc(-c2cn3c(n2)sc2cc(C(=O)NCCCN4CCCCC4)ncc23)cc1 [compound 406, 2-(4-(methylcarbamoyl)phenyl)-N-(3-(piperidin-1-yl)propyl)imidazo[2′,1′:2,3] thiazolo[4,5-c]pyridine-7-carboxamide]",++ (++ ≥5 and <6)
5,"O=C(NCCCN1CCCCC1)c1ccc2c(c1)sc1nc(-c3ccc([C@H]4CCCN4)cc3)cn12 [compound 412, (R)-N-(3-(piperidin-1-yl)propyl)-2-(4-(pyrrolidin-2-yl)phenyl)benzo[d]imidazo [2,1-b]thiazole-7-carboxamide]",+++ (+++ ≥6)
6,"O=C(NCCCN1CCCCC1)c1ccc2c(c1)sc1nc(-c3ccc([C@@H]4CCCN4)cc3)cn12 [compound 413, (S)-N-(3-(piperidin-1-yl)propyl)-2-(4-(pyrrolidin-2-yl)phenyl)benzo[d]imidazo [2,1-b]thiazole-7-carboxamide]",+++ (+++ ≥6)
7,"CCN(CC)CCCNC(=O)c1ccc2c(c1)sc1nc(-c3ccc([C@H]4CCCN4)cc3)cn12 [compound 414, (R)-N-(3-(diethylamino)propyl)-2-(4-(pyrrolidin-2-yl)phenyl)benzo[d]imidazo [2,1-b]thiazole-7-carboxamide]",+++ (+++ ≥6)
8,"CCN(CC)CCCNC(=O)c1ccc2c(c1)sc1nc(-c3ccc([C@@H]4CCCN4)cc3)cn12 [compound 415, (S)-N-(3-(diethylamino)propyl)-2-(4-(pyrrolidin-2-yl)phenyl)benzo[d]imidazo [2,1-b]thiazole-7-carboxamide]",+++ (+++ ≥6)
9,"O=C(NCCCN1CCCCC1)c1ccc2c(c1)sc1nc(-c3ccc(C4CCCN4)cc3F)cn12 (stereo not shown) [compound 416, 2-(2-fluoro-4-(pyrrolidin-2-yl)phenyl)-N-(3-(piperidin-1-yl)propyl)benzo[d]imidazo [2,1-b]thiazole-7-carboxamide]",+++ (+++ ≥6)
10,"O=C(NCCCN1CCCCC1)c1ccc2c(c1)sc1nc(-c3ccc([C@H]4CCCN4)cc3F)cn12 [compound 417, (R)-2-(2-fluoro-4-(pyrrolidin-2-yl)phenyl)-N-(3-(piperidin-1-yl)propyl)benzo[d]imidazo [2,1-b]thiazole-7-carboxamide]",+++ (+++ ≥6)
11,"O=C(NCCCN1CCCCC1)c1ccc2c(c1)sc1nc(-c3ccc([C@@H]4CCCN4)cc3F)cn12 [compound 418, (S)-2-(2-fluoro-4-(pyrrolidin-2-yl)phenyl)-N-(3-(piperidin-1-yl)propyl)benzo[d]imidazo [2,1-b]thiazole-7-carboxamide]",+++ (+++ ≥6)
12,"O=C(NCCCN1CCC(F)CC1)c1ccc2c(c1)sc1nc(-c3ccc([C@H]4CCCN4)cc3F)cn12 [compound 419, (R)-2-(2-fluoro-4-(pyrrolidin-2-yl)phenyl)-N-(3-(4-fluoropiperidin-1-yl)propyl)benzo[d]imidazo [2,1-b]thiazole-7-carboxamide]",+++ (+++ ≥6)
13,"O=C(NCCCN1CCC(F)CC1)c1ccc2c(c1)sc1nc(-c3ccc([C@@H]4CCCN4)cc3F)cn12 [compound 420, (S)-2-(2-fluoro-4-(pyrrolidin-2-yl)phenyl)-N-(3-(4-fluoropiperidin-1-yl)propyl)benzo[d]imidazo [2,1-b]thiazole-7-carboxamide]",+++ (+++ ≥6)
14,"O=C(NCCCN1CCCCC1)c1ccc2c(c1)sc1nc(-c3ccc([C@H]4CCCN4)cc3F)nn12 [compound 421, (R)-2-(2-fluoro-4-(pyrrolidin-2-yl)phenyl)-N-(3-(piperidin-1-yl)propyl)benzo[4,5]thiazolo [3,2-b][1,2,4]triazole-6-carboxamide]",++ (++ ≥5 and <6)
15,"O=C(NCCCN1CCCCC1)c1ccc2c(c1)sc1nc(-c3ccc([C@@H]4CCCN4)cc3F)nn12 [compound 422, (S)-2-(2-fluoro-4-(pyrrolidin-2-yl)phenyl)-N-(3-(piperidin-1-yl)propyl)benzo[4,5]thiazolo [3,2-b][1,2,4]triazole-6-carboxamide]",+++ (+++ ≥6)
16,O=C(NCCCN1CCC(F)CC1)c1ccc2c(c1)sc1nc(-c3ccc(C4(O)COC4)cc3F)cn12 [compound 425],+++ (+++ ≥6)

row,Compound,Myc Efficacy (−LogEC50)
1,"O=C(NCCCN1CCC(F)CC1)c1ccc2c(c1)sc1nc(-c3cc4c(cc3F)CNC4)cn12 [compound 454, 2-(6-fluoroisoindolin-5-yl)-N-(3-(4-fluoropiperidin-1-yl)propyl)benzo[d]imidazo [2,1-b]thiazole-7-carboxamide]",+++ (+++ ≥6)
2,"O=C(NCCCN1CCC(F)CC1)c1ccc2c(c1)sc1nc(-c3c(F)cc(C4CCCN4)cc3C3CC3)cn12 (stereo not shown) [compound 475, 2-(2-cyclopropyl-6-fluoro-4-(pyrrolidin-2-yl)phenyl)-N-(3-(4-fluoropiperidin-1-yl)propyl)benzo[d]imidazo[2,1-b]thiazole-7-carboxamide]",++ (++ ≥5 and <6)
3,"O=C(NCCCN1CCC(F)CC1)c1ccc2c(c1)sc1nc(-c3cc(F)c(C4CCCN4)cc3F)cn12 (stereo not shown) [compound 477, 2-(2,5-difluoro-4-(pyrrolidin-2-yl)phenyl)-N-(3-(4-fluoropiperidin-1-yl)propyl)benzo[d]imidazo[2,1-b]thiazole-7-carboxamide]",+++ (+++ ≥6)
4,"O=C(NCCCN1CCC(F)CC1)c1ccc2c(c1)sc1nc(-c3ccc(-c4ncc[nH]4)cc3F)cn12 [compound 482, 2-(2-fluoro-4-(1H-imidazol-2-yl)phenyl)-N-(3-(4-fluoropiperidin-1-yl)propyl)benzo[d]imidazo[2,1-b]thiazole-7-carboxamide]",+++ (+++ ≥6)
5,"O=C(NCCCN1CCC(F)CC1)c1ccc2c(c1)sc1nc(-c3cc(F)c(C4CCCN4)c(Cl)c3)cn12 (stereo not shown) [compound 485, 2-(3-chloro-5-fluoro-4-(pyrrolidin-2-yl)phenyl)-N-(3-(4-fluoropiperidin-1-yl)propyl)benzo[d]imidazo[2,1-b]thiazole-7-carboxamide]",+++ (+++ ≥6)
6,O=C1CCCC(c2ccc(-c3cn4c(n3)sc3cc(C(=O)NCCCN5CCC(F)CC5)ccc34)c(F)c2)N1 (stereo not shown) [compound 486],++ (++ ≥5 and <6)
7,"O=C(NCCCN1CCC(F)CC1)c1ccc2c(c1)sc1nc(-c3ccc(-c4ccn[nH]4)cc3F)cn12 [compound 487, 2-(2-fluoro-4-(1H-pyrazol-5-yl)phenyl)-N-(3-(4-fluoropiperidin-1-yl)propyl)benzo[d]imidazo[2,1-b]thiazole-7-carboxamide]",++ (++ ≥5 and <6)
8,"COc1cc(-c2cn3c(n2)sc2cc(C(=O)NCCCN4CCC(F)CC4)ccc23)c(F)cc1C1CCCN1 (stereo not shown) [compound 489, 2-(2-fluoro-5-methoxy-4-(pyrrolidin-2-yl)phenyl)-N-(3-(4-fluoropiperidin-1-yl)propyl)benzo[d]imidazo[2,1-b]thiazole-7-carboxamide]",++ (++ ≥5 and <6)
9,"Cc1cc(-c2cn3c(n2)sc2cc(C(=O)NCCCN4CCC(F)CC4)ccc23)ccn1 [compound 495, N-(3-(4-fluoropiperidin-1-yl)propyl)-2-(2-methylpyridin-4-yl)benzo[d]imidazo[2,1-b]thiazole-7-carboxamide]",+++ (+++ ≥6)
10,"NC(=O)c1ccc2c(c1)sc1nc(-c3ccc([C@@H]4C[C@H](O)CN4)cc3F)cn12 [compound 520, 2-(2-fluoro-4-((2S,4S)-4-hydroxypyrrolidin-2-yl)phenyl)benzo[d]imidazo[2,1-b]thiazole-7-carboxamide]",++ (++ ≥5 and <6)
11,"CNC(=O)c1ccc2c(c1)sc1nc(-c3ccc([C@@H]4C[C@H](O)CN4)cc3F)cn12 [compound 521, 2-(2-fluoro-4-((2S,4S)-4-hydroxypyrrolidin-2-yl)phenyl)-N-methylbenzo[d]imidazo[2,1-b]thiazole-7-carboxamide]",+++ (+++ ≥6)
12,"CN1CC[C@@H](NC(=O)c2ccc3c(c2)sc2nc(-c4ccc([C@@H]5CCCN5)cc4F)cn23)[C@@H](F)C1 [compound 526, N-((3S,4R)-3-fluoro-1-methylpiperidin-4-yl)-2-(2-fluoro-4-(pyrrolidin-2-yl)phenyl)benzo[d]imidazo[2,1-b]thiazole-7-carboxamide]",++ (++ ≥5 and <6)
13,"CN1CCC(NC(=O)c2ccc3c(c2)sc2nc(-c4ccc(C5CCNCC5)cc4F)cn23)CC1 [compound 527, 2-(2-fluoro-4-(piperidin-4-yl)phenyl)-N-(1-methylpiperidin-4-yl)benzo[d]imidazo[2,1-b]thiazole-7-carboxamide]",+++ (+++ ≥6)
14,"CN1CCC(NC(=O)c2ccc3c(c2)sc2nc(-c4ccc(C5(O)CCNCC5)cc4F)cn23)CC1 [compound 528, 2-(2-fluoro-4-(4-hydroxypiperidin-4-yl)phenyl)-N-(1-methylpiperidin-4-yl)benzo[d]imidazo[2,1-b]thiazole-7-carboxamide]",+++ (+++ ≥6)
15,"CN1CCC(NC(=O)c2ccc3c(c2)sc2nc(-c4ccc(C5(O)CCNC5)cc4F)cn23)CC1 (stereo not shown) [compound 530, 2-(2-fluoro-4-(3-hydroxypyrrolidin-3-yl)phenyl)-N-(1-methylpiperidin-4-yl)benzo[d]imidazo[2,1-b]thiazole-7-carboxamide]",+++ (+++ ≥6)
